Numbering of substitutions follows the chain as printed.
Columns and labels:
[1] = test system: T1, Receptor-type tyrosine-protein kinase FLT3 (Homo sapiens), P36888 [K663Q]; assay: (§1) Selectivity interaction (KinomeScan (DiscoverX)) EUB0000045b FLT3
T1 sequence (whole entry): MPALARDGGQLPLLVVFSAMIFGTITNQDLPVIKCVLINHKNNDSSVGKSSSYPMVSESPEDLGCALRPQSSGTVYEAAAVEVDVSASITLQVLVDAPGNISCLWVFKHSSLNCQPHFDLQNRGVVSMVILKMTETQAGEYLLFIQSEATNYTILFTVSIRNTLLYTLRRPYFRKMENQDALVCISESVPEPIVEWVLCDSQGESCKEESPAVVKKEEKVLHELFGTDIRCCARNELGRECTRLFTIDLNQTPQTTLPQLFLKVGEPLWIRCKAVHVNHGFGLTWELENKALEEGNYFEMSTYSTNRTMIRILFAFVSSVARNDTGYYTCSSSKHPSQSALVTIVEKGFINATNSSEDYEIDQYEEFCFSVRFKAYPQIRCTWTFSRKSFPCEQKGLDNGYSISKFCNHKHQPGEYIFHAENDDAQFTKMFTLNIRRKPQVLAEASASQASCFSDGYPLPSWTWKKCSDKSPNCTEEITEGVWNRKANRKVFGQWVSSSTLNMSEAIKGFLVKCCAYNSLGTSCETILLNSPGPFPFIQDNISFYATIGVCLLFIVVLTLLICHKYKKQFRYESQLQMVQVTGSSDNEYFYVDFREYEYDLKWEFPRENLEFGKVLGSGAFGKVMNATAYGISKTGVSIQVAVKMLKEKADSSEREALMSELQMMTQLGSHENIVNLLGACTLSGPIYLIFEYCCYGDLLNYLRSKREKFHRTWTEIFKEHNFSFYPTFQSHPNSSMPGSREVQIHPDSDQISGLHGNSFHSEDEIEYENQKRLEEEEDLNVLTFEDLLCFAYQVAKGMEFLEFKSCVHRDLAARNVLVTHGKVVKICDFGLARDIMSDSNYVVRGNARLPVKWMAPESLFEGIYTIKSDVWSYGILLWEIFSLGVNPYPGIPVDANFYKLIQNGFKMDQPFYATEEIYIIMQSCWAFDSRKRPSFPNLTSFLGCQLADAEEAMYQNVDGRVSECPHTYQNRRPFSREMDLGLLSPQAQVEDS

[2] = test system: T2, Receptor-type tyrosine-protein kinase FLT3 (Homo sapiens), P36888 [N841I]; assay: as §1
T2 sequence (whole entry): T1 sequence (whole entry) with Q663K, N841I

[3] = test system: T3, Receptor-type tyrosine-protein kinase FLT3 (Homo sapiens), P36888 [R834Q]; assay: as §1
T3 sequence (whole entry): T1 sequence (whole entry) with Q663K, R834Q

Question: Which results are given for C=CC(=O)Nc1cc(-n2c(=O)ccc3cnc4ccc(-c5ccc(NS(C)(=O)=O)cc5)cc4c32)ccc1C?
Answer: % of control ([1]; at 1 µM): 100%; % of control ([1]; at 10 µM): 100%; % of control ([2]; at 1 µM): 85%; % of control ([2]; at 10 µM): 86%; % of control ([3]; at 1 µM): 100%; % of control ([3]; at 10 µM): 100%

Reference: ChEMBL document CHEMBL5465560, “Selectivity Literature for EUbOPEN Chemogenomic Library” (2024)
